Laboratory results: PMC3682423 (The FEBS journal, 2011)

Experiments:
[1] = target: isolated HIV RNase H domain (p15) (Human immunodeficiency virus type 1 group M subtype B, UniProt P03366); assay: Quenching of intrinsic fluorescence of the isolated RNase H domain; format: binding, HIV-1
[2] = target: wt HIV-1 RT-associated RNase H activity (Human immunodeficiency virus type 1 group M subtype B, UniProt P03366); assay: biochemical; format: biochemical
[3] = target: wt HIV-1 RT-associated RDDP activity (Human immunodeficiency virus type 1 group M subtype B, UniProt P03366); assay: biochemical
K103N RT RNase H = K103N RT RNase H (Human immunodeficiency virus type 1 group M subtype B, UniProt P03366, K702N); assay: biochemical; set-up: species or system HIV-1
K103N RT RDDP = K103N RT RDDP (Human immunodeficiency virus type 1 group M subtype B, UniProt P03366, K702N); assay: biochemical; set-up: species or system HIV-1
Y181C RT RNase H = Y181C RT RNase H (Human immunodeficiency virus type 1 group M subtype B, UniProt P03366, Y780C); assay: RNase H polymerase-independent cleavage assay, Y181C RT; format: biochemical, HIV-1
Y181C RT RDDP = Y181C RT RDDP (Human immunodeficiency virus type 1 group M subtype B, UniProt P03366, Y780C); assay: biochemical; set-up: species or system HIV-1

| SMILES | IC50 [1] | IC50 [2] | inhibition of wt RT-associated RNase H function (in words) ([2]; wt RT) | IC50 [3] | IC50 (K103N RT RNase H) | IC50 (K103N RT RDDP) | IC50 (Y181C RT RNase H) | IC50 (Y181C RT RDDP) |
| --- | --- | --- | --- | --- | --- | --- | --- | --- |
| O=C1Cc2ccccc2C(=O)N1O [2-hydroxy-1,2,3,4-tetrahydroisoquinoline-1,3-dione] | 52 µM | – | – | – | – | – | – | – |
| O=C1c2ccccc2C(=O)c2c1ccc(O)c2O [Alizarine, alizarine] | – | > 100 µM | inactive | 79 ± 8 µM | > 100 µM | 68 ± 5 µM | > 100 µM | > 100 µM |
